According to PubChem BioAssay (NCI):
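Tested at 5 concentrations; 48 h exposure; 96-well plates; endpoints linearly interpolated, else capped at highest concentration. GI50 marks 50% less growth. TGI: total growth inhibition.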

How the values were obtained:
Assay in all cases: DTP human tumour cell line panel, 48 h
MALME-3M melanoma = system: MALME-3M melanoma
OVCAR-3 ovarian = system: OVCAR-3 ovarian
NCI-H23 lung = system: NCI-H23 lung
MCF7 breast = system: MCF7 breast
NCI-H522 lung = system: NCI-H522 lung
NCI/ADR-RES ovarian = system: NCI/ADR-RES ovarian
U251 CNS = system: U251 CNS
SNB-19 CNS = system: SNB-19 CNS
DLD-1 colon = system: DLD-1 colon
LXFL 529 NSCLC = system: LXFL 529 NSCLC

SMILES	GI50 (MALME-3M melanoma) [µM]	TGI (MALME-3M melanoma) [µM]	GI50 (OVCAR-3 ovarian) [µM]	TGI (OVCAR-3 ovarian) [µM]	GI50 (NCI-H23 lung) [µM]	TGI (NCI-H23 lung) [µM]	GI50 (MCF7 breast) [µM]	TGI (MCF7 breast) [µM]	GI50 (NCI-H522 lung) [µM]	TGI (NCI-H522 lung) [µM]	GI50 (NCI/ADR-RES ovarian) [µM]	TGI (NCI/ADR-RES ovarian) [µM]	GI50 (U251 CNS) [µM]	TGI (U251 CNS) [µM]	GI50 (SNB-19 CNS) [µM]	TGI (SNB-19 CNS) [µM]	TGI (DLD-1 colon) [µM]	TGI (LXFL 529 NSCLC) [µM]
COc1ccc(-c2nc(-c3ccccc3)c(-c3ccccc3)[nH]2)cc1OC1CCCC1	> 100	> 100	> 100	> 100	> 100	> 100	> 100	> 100	6.11	> 100	> 100	> 100	> 100	> 100	> 100	> 100	–	–
C[C@]12CCC(=O)C=C1CC[C@@H]1C2CC[C@]2(C)Nc3c(cnn3-c3ccccc3)CC12 (stereo partly drawn)	–	> 100	–	> 10	–	> 100	–	–	–	–	–	–	–	> 100	–	–	> 100	> 100
COc1c(O)cc2oc(-c3ccc(O)cc3)cc(=O)c2c1O	–	> 100	–	> 100	–	> 100	–	> 100	–	> 100	–	> 100	–	> 100	–	> 100	–	–
Nc1nc(N)c2nc(CNc3ccc(C(=O)NC(CC(=O)O)C(=O)O)cc3)cnc2n1 (stereo not drawn)	> 100	> 100	0.694	> 100	2.38	> 100	0.631	> 100	3.97	> 100	0.638	> 100	1.97	> 100	8.39	> 100	–	–
COC1=CC(c2ccc[nH]2)=N/C1=C\c1[nH]c(C)c(C(=O)CCCCC(=O)NC(C)(C)C)c1C	1.47	3.12	1.22	2.73	1.57	4.46	1.5	2.92	2.09	6.73	1.61	3.21	1.29	2.57	3.01	18.7	–	–
CCC1CN2C(=N1)c1ccccc1-c1cc(Cl)ccc12 (stereo not drawn)	2.8	8.15	3.48	9.9	3.78	15.2	2.45	14.1	2.58	8.19	3.7	18.4	3.18	11.6	5.85	30.5	–	–
CNCCCn1c2c(c3ccc([N+](=O)[O-])cc3c1=O)C(=O)c1cc(OC)cnc1-2	0.175	0.923	0.174	0.617	0.04	0.267	0.0132	1.06	0.0838	0.464	0.0613	1.08	0.0364	0.251	0.0394	2.07	–	–
Cc1ccc(SSc2ccc(C)cc2C(=O)O)c(C(=O)O)c1	–	> 100	–	–	–	> 100	–	–	–	> 100	–	–	–	> 100	–	> 100	> 100	> 100
Cc1ccc(-c2nc(C#N)c(S(=O)(=O)n3nc(C)cc3N)o2)cc1	1.82	3.54	2.08	3.73	13.9	37.3	3.07	15.5	1.65	3.58	19	78.5	13.6	26.5	14.1	28.4	–	–
CC1CC2OC(=O)C(C)C2CC2(C)C(OC3OC(CO)C(O)C(O)C3O)OCCC12 (stereo not drawn)	–	> 100	–	> 100	–	> 100	–	> 100	–	> 100	–	> 100	–	> 100	–	> 100	–	–
CCn1cnc(C[C@H](NC(=O)[C@@H](NC(=O)Nc2cc(C(F)(F)F)cc(C(F)(F)F)c2)C(C)C)C(=O)OC)c1	> 10	> 10	1.82	3.44	2.69	> 10	1.83	3.8	1.78	3.98	> 10	> 10	1.98	3.96	1.61	3.19	–	–
O=C(N/C(=C/c1ccc(Cl)cc1Cl)c1nc2ccccc2s1)c1ccccc1	–	31.1	–	24.5	–	26.5	–	52.1	–	24.7	–	39.5	–	9.05	–	41.1	–	–
C=C1/C(=C\C=C2/CCC[C@]3(C)[C@@H]([C@H](C)CCCC(C)(C)O)CC[C@@H]23)C[C@@H](OC(=O)CBr)C[C@@H]1O	0.184	0.674	0.395	1.23	0.386	2.31	1.38	5.74	0.255	0.83	1.95	18.7	4.51	18.8	11.2	24.9	–	–
COc1cccc(C2=C(c3c(C)n(C)c4ccccc34)C(=O)NC2=O)c1	> 21.2	> 25	> 23.9	> 25	> 25	> 25	17.5	> 25	15.3	> 25	14	> 25	> 25	> 25	> 25	> 25	–	–
COc1cccc2c1ccc1nc3cccc(C(=O)N[C@H](C)CN(C)C)c3nc12	0.0806	0.473	0.102	0.511	0.0929	0.382	0.0341	1.58	0.0579	0.279	0.0721	0.554	0.0441	8.28	0.0907	10.9	–	–
Cc1cc(NCCCCCCNc2cc(C)nc3cc(N(C)C)ccc23)c2ccc(N(C)C)cc2n1	–	62.6	–	> 100	–	> 100	–	–	–	> 100	–	–	–	> 100	–	92.7	> 100	–
c1ccc(C(c2ccccc2)c2cccnc2)cc1	–	> 100	–	> 100	–	> 100	–	–	–	–	–	–	–	> 100	–	> 100	> 100	–
COc1ccc(C2CC(C)(O)Oc3cc4c(cc32)OCO4)cc1 (stereo not drawn)	–	> 100	–	> 100	–	> 100	–	> 100	–	44.6	–	> 78.2	–	> 100	–	> 100	–	–
